Results reported in ChEMBL document CHEMBL5576132 (J Med Chem, 2024).
Each block holds one compound with its values, some of them ahead of it. Calls of active or inactive are those of the source. The calls are words filed in the database; no cut-off is given here.

Tests used:
[1] = Dose normalized AUC in mouse at 25 mg/kg, iv by HPLC-MS/MS analysis; type: ADME, organism-based; conditions: in vivo
[2] = AUC in CB17/Icr-Prkdc(scid)/IcrCrl mouse at 60 mg/kg, iv administered daily for 7 days and measured upto 21 days in presence of (R)-7-(7-Chloro-10-(3-(4-chloro-3,5-dimethylphenoxy)propyl)-4-methyl-1-oxo-6-(2,4,6-trimethylpyrimidin-5-yl)-3,4-dihydropyrazino[1,2-a]indol-2(1H)-yl)-4-methoxy-1-methyl-5-((tetrahydro-2H-pyran-4-yl)methoxy)-1H-indole-2-carboxylic Acid; type: ADME, organism-based; conditions: in vivo, time < 21 day
[3] = Toxicity in CB17/Icr-Prkdc(scid)/IcrCrl mouse assessed as reduction in tumor area at 10 mg/kg, iv measured after 21 days by H and E staining based analysis; type: organism-based; conditions: in vivo, 504 h, time 21 day
A-427 [4] = test: Antitumor activity against human A-427 cells xenografted in CB17/Icr-Prkdc(scid)/IcrCrl mouse model assessed as tumor regression at 60 mg/kg, iv administered daily for 7 days and measured upto 21 days in presence of docetaxel; type: functional, organism-based; conditions: time <= 21.0 day
[5] = Toxicity in CB17/Icr-Prkdc(scid)/IcrCrl mouse assessed as reduction in tumor area at 10 mg/kg, iv measured after 21 days by Ki67 staining based analysis; type: organism-based; conditions: in vivo, 504 h, time 21 day
A-427 [6] = test: Antitumor activity against human A-427 cells xenografted in CB17/Icr-Prkdc(scid)/IcrCrl mouse model assessed as tumor regression at 10 mg/kg, iv administered daily for 7 days and measured upto 21 days; type: functional, organism-based; conditions: time <= 21.0 day
[7] = Dose normalized AUC in mouse at 20 mg/kg, iv by HPLC-MS/MS analysis; type: ADME, organism-based; conditions: in vivo
NCI-H1048 [8] = test: Antitumor activity against human NCI-H1048 cells xenografted in BomTac:NMRI-Foxn1nu mouse model assessed as tumor growth inhibition at 60 mg/kg, iv administered daily for 7 days and measured upto 16 days in presence of topotecan relative to control; type: functional; conditions: NCI-H1048, 384 h, time <= 16 day, read-out: TGI
NCI-H929 [9] = test: Antitumor activity against human NCI-H929 cells xenografted in CB17/Icr-Prkdc(scid)/IcrCrl mouse assessed as disruption of Mcl-1:BIM complex; type: functional, cell-based; conditions: time <= 48.0 hrs, TDE = time-dependent effect
[10] = Plasma protein binding (unknown origin); type: ADME, cell-free; conditions: read-out: PPB (converted)
Cytochrome P450 2C8 = target: T1, Cytochrome P450 2C8 (Homo sapiens, UniProt P10632); test: Inhibition of CYP2C8 (unknown origin); type: ADME
T1 sequence (P10632 whole entry): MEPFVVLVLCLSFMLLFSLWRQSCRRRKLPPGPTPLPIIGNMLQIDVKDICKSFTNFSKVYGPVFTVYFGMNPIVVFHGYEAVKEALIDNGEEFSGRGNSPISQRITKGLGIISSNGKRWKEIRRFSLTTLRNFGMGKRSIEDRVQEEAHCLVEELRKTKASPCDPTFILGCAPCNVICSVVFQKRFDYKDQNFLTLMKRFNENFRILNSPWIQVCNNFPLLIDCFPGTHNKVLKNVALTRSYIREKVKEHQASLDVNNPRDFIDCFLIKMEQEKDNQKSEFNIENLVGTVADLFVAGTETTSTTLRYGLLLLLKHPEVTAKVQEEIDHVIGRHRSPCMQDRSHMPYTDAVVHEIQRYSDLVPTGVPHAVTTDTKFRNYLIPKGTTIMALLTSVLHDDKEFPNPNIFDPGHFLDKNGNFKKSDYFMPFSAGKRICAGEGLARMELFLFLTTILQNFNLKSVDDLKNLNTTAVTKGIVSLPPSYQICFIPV

[11] = Toxicity in CB17/Icr-Prkdc(scid)/IcrCrl mouse assessed as reduction in tumor area at 60 mg/kg, iv measured after 21 days presence of docetaxel by Ki67 staining based analysis; type: organism-based; conditions: in vivo, 504 h, time 21 day
[12] = Toxicity in CB17/Icr-Prkdc(scid)/IcrCrl mouse assessed as reduction in tumor area at 60 mg/kg, iv measured after 21 days by H and E staining based analysis; type: organism-based; conditions: in vivo, 504 h, time 21 day
[13] = AUC in CB17/Icr-Prkdc(scid)/IcrCrl mouse at 60 mg/kg, iv administered daily for 7 days and measured upto 21 days in presence of docetaxel; type: ADME, organism-based; conditions: in vivo, time < 21 day
Cytochrome P450 3A4 [14] = target: T2, Cytochrome P450 3A4 (Homo sapiens, UniProt P08684); test: Inhibition of CYP3A4 (unknown origin); type: ADME
[15] = Toxicity in CB17/Icr-Prkdc(scid)/IcrCrl mouse assessed as reduction in tumor area at 60 mg/kg, iv measured after 21 days by Ki67 staining based analysis; type: organism-based; conditions: in vivo, 504 h, time 21 day
NCI-H929 [16] = test: Antitumor activity against human NCI-H929 cells xenografted in CB17/Icr-Prkdc(scid)/IcrCrl mouse model assessed as increase in […] activity measured upto 48 hrs by glo reagent based analysis; type: functional, cell-based
[17] = Toxicity in CB17/Icr-Prkdc(scid)/IcrCrl mouse assessed as effect on body weight at 60 to 80 mg/kg, iv administered as single dose measured after 15 days; type: organism-based; conditions: in vivo, 360 h, dose 60-80 mg/kg, time 15 day
A-427 [18] = test: Antiproliferative activity against human A-427 cells at upto 1000 nM measured after 72 to 96 hrs in presence of docetaxel by cell-titer glo assay; type: functional, cell-based; conditions: time 72-96 hrs
[19] = Clearance in dog assessed as hepatic blood flow at 0.5 mg/kg, iv by HPLC-MS/MS analysis; type: ADME, organism-based, Canis lupus familiaris, Liver; conditions: in vivo
Cytochrome P450 3A4 [20] = target: T2, Cytochrome P450 3A4; test: Time dependent inhibition of CYP3A4 (unknown origin) relative to control; type: ADME
[21] = Toxicity in CB17/Icr-Prkdc(scid)/IcrCrl mouse assessed as reduction in tumor area at 60 mg/kg, iv measured after 21 days in presence of docetaxel by H and E staining based analysis; type: organism-based; conditions: in vivo, 504 h, time 21 day
NCI-H1048 [22] = test: Antitumor activity against human NCI-H1048 cells xenografted in BomTac:NMRI-Foxn1nu mouse model assessed as tumor growth regression at 60 mg/kg, iv administered daily for 7 days and measured upto 16 days in presence of topotecan; type: functional, organism-based; conditions: time <= 16.0 day
[23] = Clearance in dog assessed as hepatic blood flow at 0.9 mg/kg, iv by HPLC-MS/MS analysis; type: ADME, organism-based, Canis lupus familiaris, Liver; conditions: in vivo
[24] = Clearance in dog assessed as hepatic blood flow at 0.25 mg/kg, iv by HPLC-MS/MS analysis; type: ADME, organism-based, Canis lupus familiaris, Liver; conditions: in vivo
[25] = target: Induced myeloid leukemia cell differentiation protein Mcl-1 (Homo sapiens) (UniProt Q07820); conditions: time 3.0 hrs
K562 = test: Growth inhibition of human K562 cells measured after 72 to 96 hrs by cell-titer glo assay; type: functional; conditions: time 72-96 hrs
NCI-H929 [26] = test: Growth inhibition of human NCI-H929 cells measured after 72 to 96 hrs by cell-titer glo assay; type: functional; conditions: time 72-96 hrs
[27] = Dose normalized AUC in mouse at 5 mg/kg, iv by HPLC-MS/MS analysis; type: ADME, organism-based; conditions: in vivo

T2 sequence (P08684 whole entry): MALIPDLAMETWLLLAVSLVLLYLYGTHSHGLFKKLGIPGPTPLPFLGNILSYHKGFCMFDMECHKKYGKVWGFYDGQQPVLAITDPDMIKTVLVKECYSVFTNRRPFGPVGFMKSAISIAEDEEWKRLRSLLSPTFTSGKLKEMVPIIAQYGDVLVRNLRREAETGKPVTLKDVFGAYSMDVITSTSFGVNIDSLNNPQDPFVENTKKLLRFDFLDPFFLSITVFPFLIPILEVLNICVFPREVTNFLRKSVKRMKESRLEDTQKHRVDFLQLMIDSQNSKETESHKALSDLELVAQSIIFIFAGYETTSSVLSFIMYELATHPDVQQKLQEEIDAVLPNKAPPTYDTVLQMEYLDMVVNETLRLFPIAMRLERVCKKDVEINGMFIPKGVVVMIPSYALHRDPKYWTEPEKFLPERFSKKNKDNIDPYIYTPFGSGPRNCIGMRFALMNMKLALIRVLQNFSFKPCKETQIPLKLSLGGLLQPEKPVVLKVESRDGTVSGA
Sequence of Induced myeloid leukemia cell differentiation protein Mcl-1 (Homo sapiens) (Q07820 whole entry): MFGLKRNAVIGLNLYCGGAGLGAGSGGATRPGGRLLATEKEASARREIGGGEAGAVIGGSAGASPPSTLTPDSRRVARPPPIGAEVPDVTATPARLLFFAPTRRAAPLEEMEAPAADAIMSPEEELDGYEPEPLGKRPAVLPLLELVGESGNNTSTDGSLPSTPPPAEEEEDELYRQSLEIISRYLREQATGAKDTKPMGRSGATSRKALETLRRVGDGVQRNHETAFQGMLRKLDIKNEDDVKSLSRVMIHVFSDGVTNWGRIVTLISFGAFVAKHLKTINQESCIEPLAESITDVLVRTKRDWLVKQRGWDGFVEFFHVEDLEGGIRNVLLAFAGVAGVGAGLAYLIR

SMILES: COc1c(OC[C@H]2CCCO2)cc(N2C[C@@H](C)n3c(c(CCCOc4cc(C)c(Cl)c(C)c4)c4ccc(Cl)c(-c5c(C)ncnc5C)c43)C2=O)c2c1cc(C(=O)O)n2C
AUC/dose [1]: 1480 nM·h/mg/kg

SMILES: CC(=O)O[C@@]12CO[C@@H]1C[C@H](O)[C@@]1(C)C(=O)[C@H](O)C3=C(C)[C@@H](OC(=O)[C@H](O)[C@@H](NC(=O)OC(C)(C)C)c4ccccc4)C[C@@](O)([C@@H](OC(=O)c4ccccc4)[C@H]21)C3(C)C [DOCETAXEL ANHYDROUS]
AUC at 504 h [2]: 0.0234 µM·h
Activity [3]: Non-Toxic
Activity (A-427 [4]): Active
Activity [5]: Non-Toxic
Activity (A-427 [6]): Active

SMILES: COCCOc1cc(N2C[C@@H](C)n3c(c(CCCOc4cc(C)c(Cl)c(C)c4)c4ccc(Cl)c(-c5c(C)ncnc5C)c43)C2=O)c2c(cc(C(=O)O)n2C)c1OC
AUC/dose [1]: 380 nM·h/mg/kg

SMILES: COc1c(OCC2CCOCC2)cc(N2C[C@@H](C)n3c(c(CCCOc4cc(C)c(Cl)c(C)c4)c4ccc(Cl)c(-c5c(C)ncnc5C)c43)C2=O)c2c1cc(C(=O)O)n2C
AUC/dose [7]: 2830 nM·h/mg/kg

SMILES: CCOc1c(OCC2CCOCC2)cc(N2C[C@@H](C)n3c(c(CCCOc4cc(C)c(Cl)c(C)c4)c4ccc(Cl)c(-c5c(C)nc(C)nc5C)c43)C2=O)c2c1cc(C(=O)O)n2C
AUC/dose [7]: 4930 nM·h/mg/kg

SMILES: CC[C@@]1(O)C(=O)OCc2c1cc1n(c2=O)Cc2cc3c(CN(C)C)c(O)ccc3nc2-1 [TOPOTECAN]
inhibition in vivo at 60 mg/kg (NCI-H1048 [8]): 108%

SMILES: COc1c(OC[C@H]2CCCO2)cc(N2C[C@@H](C)n3c(c(CCCOc4cc(C)c(Cl)c(C)c4)c4ccc(Cl)c(-c5c(C)nc(C)nc5C)c43)C2=O)c2c1cc(C(=O)O)n2C
AUC/dose [7]: 2510 nM·h/mg/kg

SMILES: Cc1cc(OCCCc2c3n(c4c(-c5c(C)nn(C)c5C)c(Cl)ccc24)[C@H](C)CN(c2cccc4cc(C(=O)O)n(C)c24)C3=O)cc(C)c1Cl
Activity [25]: inactive

SMILES: COc1c(O[C@@H]2CCOC2)cc(N2C[C@@H](C)n3c(c(CCCOc4cc(C)c(Cl)c(C)c4)c4ccc(Cl)c(-c5c(C)nc(C)nc5C)c43)C2=O)c2c1cc(C(=O)O)n2C
AUC/dose [7]: 1420 nM·h/mg/kg
GI50 (K562): > 12000 nM
GI50 (NCI-H929 [26]): 26 nM

Now from value to compound, other results behind:

fraction unbound [10]: 0.002
IC50 (Cytochrome P450 2C8): 2100 nM
AUC/dose [1]: 9000 nM·h/mg/kg
AUC at 504 h [13]: 0.382 µM·h
IC50 (Cytochrome P450 3A4 [14]): 1800 nM
QH [19]: 17%
TDI (Cytochrome P450 3A4 [20]): 67%
SMILES: COc1c(OCC2CCOCC2)cc(N2C[C@@H](C)n3c(c(CCCOc4cc(C)c(Cl)c(C)c4)c4ccc(Cl)c(-c5c(C)nc(C)nc5C)c43)C2=O)c2c1cc(C(=O)O)n2C
Activity (NCI-H929 [9]): Tde
Activity [11]: Non-Toxic
Activity [12]: Non-Toxic
Activity [15]: Non-Toxic
Activity (NCI-H929 [16]): Active
Activity [17]: Non-Toxic
Activity (A-427 [18]): Active
Activity [21]: Non-Toxic
Activity (NCI-H1048 [22]): Active

AUC/dose [7]: 2190 nM·h/mg/kg
QH [23]: 29%
SMILES: COc1c(OC[C@@H]2CCCO2)cc(N2C[C@@H](C)n3c(c(CCCOc4cc(C)c(Cl)c(C)c4)c4ccc(Cl)c(-c5c(C)nc(C)nc5C)c43)C2=O)c2c1cc(C(=O)O)n2C

AUC/dose [1]: 334 nM·h/mg/kg
QH [24]: 50%
SMILES: COCCOc1cc(N2C[C@@H](C)n3c(c(CCCOc4cc(C)c(Cl)c(C)c4)c4ccc(Cl)c(-c5c(C)nc(C)nc5C)c43)C2=O)c2c(cc(C(=O)O)n2C)c1OC

QH [23]: 38%
GI50 (K562): 8000 nM
GI50 (NCI-H929 [26]): 22 nM
AUC/dose [27]: 1860 nM·h/mg/kg
SMILES: COc1c(O[C@H]2CCOC2)cc(N2C[C@@H](C)n3c(c(CCCOc4cc(C)c(Cl)c(C)c4)c4ccc(Cl)c(-c5c(C)nc(C)nc5C)c43)C2=O)c2c1cc(C(=O)O)n2C

AUC/dose [7]: 2460 nM·h/mg/kg
SMILES: CCOc1c(O[C@H]2CCOC2)cc(N2C[C@@H](C)n3c(c(CCCOc4cc(C)c(Cl)c(C)c4)c4ccc(Cl)c(-c5c(C)nc(C)nc5C)c43)C2=O)c2c1cc(C(=O)O)n2C
